Marks after values point to notes of the source that are not given here.
What was measured:
ApoE knockout mice = experiment: Plasma sphingomyelin and phosphatidylcholine by HPLC, 4 weeks (Table 2); format: in vivo; settings: for PC in plasma / SM in plasma / SM; PC molar ratio: diet admix 4 weeks, n = 10
Description: Animal experiments—Male C57BI/6J and ApoE KO mice on C57BI/6J background were obtained from the Jackson Laboratory (Bar Harbor, Me.) or Taconic (Germantown, N.Y.) (Plaque formation in ApoE KO mice is lipid-driven (A. S. Plump et al., Cell. 1992;71 (2):343-53)). Myriocin was mixed with Western diet containing 0.21% cholesterol and 21% fat. 8-12-week-old mice received 0.3 mg myriocin/kg/day for 12 weeks (Table 1). […] Control groups consisted of ApoE KO mice fed normal chow or Western diet without myriocin, and normal chow-fed C57BI/6J mice. Body weight and chow feeding was measured every week to examine the food consumption. For the femoral artery cuff model, 8-10 week-old male ApoE KO mice were anethetized and the right femoral artery was dissected from its surroundings. A nonconstrictive polyethylene cuff (Portex, 0.40-mm inner diameter, 0.80-mm outer diameter, and 1.5-mm length) was placed looselyaround the right femoral artery.
The liquid chromatography system was composed of twin Shimadzu (Columbia, Md.) LC-10ADvp HPLC pumps with a SCL-10Avp controller (flow rate 0.2 mL/minute), and a LEAP Technologies (Carrboro, N.C.) CTC PAL autosampler. For the quantitative method, the analytical column was a Phenomenex (Torrance, Calif.) Polar-RP (2.0×150 mm, 4 μm) with a MetaChem (Torrance, Calif.) MetaGuard Polaris C8 2.0 mm direct connect (5 μm) guard column. Mobile phase A consisted of water/acetonitrile/formic acid (60/40/0.1) and mobile phase B was propanol. The HPLC pumps were programmed with a gradient for each injection to deliver 98% mobile phase A (0-1 minute), 30% mobile phase A (1-2 minutes), 30% mobile phase A (2-4 minutes), and 98% mobile phase A (4-4.5 minutes). A sample volume of 2 μL was injected into the LC/MS/MS system. Final chromatographic retention times for sphingomyelin, sphinganine, psychosine (internal standard) and ceramide were 4.84 minutes, 5.43 minutes, 4.92 minutes and 5.31 , minutes, respectively. Lipid extracts were analyzed by HPLC and evaporative light scattering detector to determine plasma sphingomyelin and phosphatidylcholine (PC) levels (R. Homan and M.K. Anderson, J. Chromatogr. B. Biomed. Sci. Appl. 1998;708:21-6).
To investigate whether myriocin was effective in lowering sphingomyelin biosynthesis, various concentrations of myriocin were administered to ApoE KO mice for 4 weeks and plasma SM levels were examined. […] At the highest dose of myriocin (1 mg/kg/day), plasma sphingomyelin levels were reduced by 70% when compared with no-myriocin control. Thus, myriocin in a diet admix was effective in inhibiting sphingomyelin biosynthesis and lowering plasma sphingomyelin levels. Since SM levels relative to phospholipids has been regarded as a risk factor for coronary artery disease, plasma PC levels were determined by HPLC analysis. Although there were significant changes in plasma SM levels, plasma PC levels were not changed to the same extent by myriocin. Consequently, SM/PC molar ratio was lowered by myriocin in a dose-dependent manner (Table 2).

[1] = molecular target: T1, serine palmitoyltransferase (SPT) (Mus musculus, UniProt O35704+P97363); experiment: SPT activity of liver cell-free homogenate (14C-serine, palmitoyl CoA, TLC); format: in vivo, mice; settings: 0.3 mg/kg/day, 12 weeks
T1 construct: from tissue; host or cells: mouse liver (ApoE KO and C57Bl/6J mice), cell-free homogenate
T1 sequence (P97363 1-560): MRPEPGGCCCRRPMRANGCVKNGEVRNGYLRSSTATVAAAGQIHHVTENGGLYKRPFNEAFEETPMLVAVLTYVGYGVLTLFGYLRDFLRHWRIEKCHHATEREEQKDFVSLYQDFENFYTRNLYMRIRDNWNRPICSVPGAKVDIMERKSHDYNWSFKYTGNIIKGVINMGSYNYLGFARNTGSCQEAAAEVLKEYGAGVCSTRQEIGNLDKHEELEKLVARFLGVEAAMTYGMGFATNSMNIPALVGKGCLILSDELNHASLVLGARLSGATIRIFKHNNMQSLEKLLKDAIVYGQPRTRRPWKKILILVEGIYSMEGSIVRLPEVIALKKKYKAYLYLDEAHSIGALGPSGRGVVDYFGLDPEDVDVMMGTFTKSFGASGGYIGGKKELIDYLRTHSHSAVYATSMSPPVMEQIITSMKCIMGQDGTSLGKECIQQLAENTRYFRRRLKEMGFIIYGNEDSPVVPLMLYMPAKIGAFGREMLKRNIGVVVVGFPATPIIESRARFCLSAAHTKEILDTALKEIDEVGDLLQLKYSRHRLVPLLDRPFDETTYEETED
T1 sequence (O35704 1-473): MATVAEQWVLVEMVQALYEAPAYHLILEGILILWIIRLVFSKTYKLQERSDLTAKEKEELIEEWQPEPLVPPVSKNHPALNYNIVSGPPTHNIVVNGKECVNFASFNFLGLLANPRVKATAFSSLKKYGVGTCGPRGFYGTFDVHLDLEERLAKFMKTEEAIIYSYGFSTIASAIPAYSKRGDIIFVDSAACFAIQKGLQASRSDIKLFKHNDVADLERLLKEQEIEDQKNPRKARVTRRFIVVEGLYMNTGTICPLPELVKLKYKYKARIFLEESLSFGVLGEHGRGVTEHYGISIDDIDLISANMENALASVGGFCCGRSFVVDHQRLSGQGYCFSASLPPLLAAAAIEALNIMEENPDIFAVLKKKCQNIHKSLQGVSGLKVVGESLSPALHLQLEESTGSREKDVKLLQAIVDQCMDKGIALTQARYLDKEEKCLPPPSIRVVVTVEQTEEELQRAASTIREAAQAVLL
T1 sequence (Q8R207 1-71 partner): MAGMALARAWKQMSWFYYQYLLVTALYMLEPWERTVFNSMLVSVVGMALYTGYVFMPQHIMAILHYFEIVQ
Description: Liver tissues from each group were homogenized and SPT activity was measured using ^14C-serine and palmitoyl CoA as substrates and thin-layer chromatography (TLC) analysis (K. Gable et al., J. Biol. Chem. 2000;275(11):7597-603). FIGS. 1-A, 1-B, 1-C, 1-D and 1-E. SPT gene expression and enzyme activity. Mice were treated with 0.3 mg/kg/day myriocin for 12 weeks by mixing with Western diet chow. Liver was isolated and total mRNA and cell-free homogenate were prepared. SPT mRNA expression was quantified by quantitative RT-PCR. Expression was described as a ratio of LCB1 (A) or LCB2 (B) mRNA to 18s RNA or to rodent GAPDH RNA (n=5, P>0.05). SPT activity of cell-free homogenate (C) was measured with ^14C-labeled Serine and palmitoyl-coenzyme A as substrates and analyzed by TLC. Relative amounts of 3-ketosphinganine were determined by densitometry scanning. The values reported are mean±SEM (n=3, *P<0.05).

## CCCCCCC(=O)CCCCCC/C=C/C[C@@H](O)[C@H](O)[C@@](N)(CO)C(=O)O [myriocin]
ApoE knockout mice; 1 mg/kg/day, 4 weeks, vs no-myriocin control
  plasma sphingomyelin levels reduced (HPLC): 70%
ApoE knockout mice; WD + 0.1 mg myr
  PC in plasma: 2.763 ± 0.195 nmol/mL
  SM in plasma: 0.379 ± 0.035 nmol/mL
  SM; PC molar ratio: 0.137 ± 0.005^b
ApoE knockout mice; WD + 0.3 mg myr
  PC in plasma: 1.999 ± 0.085 nmol/mL
  SM in plasma: 0.243 ± 0.032 nmol/mL
  SM; PC molar ratio: 0.122 ± 0.013^b
ApoE knockout mice; WD + 1 mg myr
  PC in plasma: 2.044 ± 0.146 nmol/mL
  SM in plasma: 0.175 ± 0.013 nmol/mL
  SM; PC molar ratio: 0.086 ± 0.008^b
[1]; compared with the C57BI/6J control group
  decrease of SPT activity in the liver: 48%
[1]; compared with untreated Western diet-fed ApoE KO mice
  decrease of SPT activity in the liver: 66%

Reference: US20080027088A1, “Imidazole-Based Hmg-Coa Reductase Inhibitors” (Warner-Lambert Company, LLC, priority 2004, published 2008)
